Key:
Test in all cases: relative viability (nuclei count vs DMSO), 5 days (fraction); higher = more cells survive
[1] = test system: A549
Method in brief: (§1)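 A single step with final 0.05% Triton X-100, 1% formaldehyde and 1 ug/ml Hoechst fixed the cells and stained nuclei 5 days after treatment. Lung cancer cell lines in 1536-well plates had been treated by pin tool the day after seeding with one drug alone or a fixed anchor-drug dose plus five library-drug doses (not always all listed) in √10 steps, and nuclei were counted on 4× images. Relative viability is the ratio of nuclei in treated wells to nuclei in vehicle wells, taken as the median of duplicate plates.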

[2] = test system: Calu-6
Method in brief: as §1

[3] = test system: IA-LM
Method in brief: as §1

[4] = test system: NCI-H1299
Method in brief: as §1

[5] = test system: NCI-H1703
Method in brief: as §1

[6] = test system: NCI-H1623
Method in brief: as §1

Row | Structure (SMILES) | relative viability ([1]; first compound 0.253 µM) | relative viability ([1]; first compound 0.8 µM) | relative viability ([1]; first compound 2.53 µM) | relative viability ([1]; first compound 8 µM) | relative viability ([2]; first compound 0.253 µM) | relative viability ([2]; first compound 0.8 µM) | relative viability ([2]; first compound 2.53 µM) | relative viability ([2]; first compound 8 µM) | relative viability ([3]; first compound 0.253 µM) | relative viability ([3]; first compound 0.8 µM) | relative viability ([3]; first compound 2.53 µM) | relative viability ([3]; first compound 8 µM) | relative viability ([4]; first compound 0.253 µM) | relative viability ([4]; first compound 0.8 µM) | relative viability ([4]; first compound 2.53 µM) | relative viability ([4]; first compound 8 µM) | relative viability ([5]; first compound 0.253 µM) | relative viability ([5]; first compound 0.8 µM) | relative viability ([5]; first compound 2.53 µM) | relative viability ([5]; first compound 8 µM) | other results
1 | Nc1cccc2c1CN(C1CCC(=O)NC1=O)C2=O (stereo not drawn) [Lenalidomide] + CC1(C)CCC(c2ccc(Cl)cc2)=C(CN2CCN(c3ccc(C(=O)NS(=O)(=O)c4ccc(N[C@H](CCN5CCOCC5)CSc5ccccc5)c(S(=O)(=O)C(F)(F)F)c4)cc3)CC2)C1 [Navitoclax] (partner 0.5 µM) | 1.21 | 1.17 | 1.21 | 1.24 | 0.814 | 0.805 | 0.803 | 0.863 | 0.895 | 0.715 | 0.829 | 0.786 | 1.05 | 1.04 | 1.07 | 1.05 | 0.994 | 1.28 | 1.23 | 1.23 | –
2 | Nc1cccc2c1CN(C1CCC(=O)NC1=O)C2=O (stereo not drawn) [Lenalidomide] + CCNC(=O)c1noc(-c2cc(C(C)C)c(O)cc2O)c1-c1ccc(CN2CCOCC2)cc1 [Luminespib] (partner 0.01 µM) | – | – | – | – | – | – | – | – | – | – | – | – | – | – | – | – | – | – | – | – | relative viability ([6]; first compound 0.253 µM): 0.413; relative viability ([6]; first compound 0.8 µM): 0.474; relative viability ([6]; first compound 2.53 µM): 0.557; relative viability ([6]; first compound 8 µM): 0.399
3 | Nc1cccc2c1CN(C1CCC(=O)NC1=O)C2=O (stereo not drawn) [Lenalidomide] + COc1cc2c(Oc3ccc(NC(=O)C4(C(=O)Nc5ccc(F)cc5)CC4)cc3F)ccnc2cc1OCCCN1CCOCC1 [Foretinib] (partner 0.25 µM) | 0.925 | 0.954 | 1.04 | 0.897 | 0.932 | 0.889 | 0.921 | 0.887 | 0.952 | 1.15 | 1.28 | 1.07 | 1.1 | 1.08 | 1.09 | 1.13 | 0.328 | 0.348 | 0.403 | 0.426 | relative viability ([6]; first compound 0.253 µM): 0.858; relative viability ([6]; first compound 0.8 µM): 0.784; relative viability ([6]; first compound 2.53 µM): 0.862; relative viability ([6]; first compound 8 µM): 0.71
4 | Nc1cccc2c1CN(C1CCC(=O)NC1=O)C2=O (stereo not drawn) [Lenalidomide] + COc1cccc2cc(-c3nc([C@H]4CC[C@H](C(=O)O)CC4)n4ncnc(N)c34)[nH]c12 [OSI-027] (partner 0.5 µM) | – | – | – | – | – | – | – | – | – | – | – | – | – | – | – | – | – | – | – | – | relative viability ([6]; first compound 0.253 µM): 0.433; relative viability ([6]; first compound 0.8 µM): 0.418; relative viability ([6]; first compound 2.53 µM): 0.375; relative viability ([6]; first compound 8 µM): 0.392
5 | Nc1cccc2c1CN(C1CCC(=O)NC1=O)C2=O (stereo not drawn) [Lenalidomide] + CS(=O)(=O)N1CCN(Cc2cc3nc(-c4cccc5[nH]ncc45)nc(N4CCOCC4)c3s2)CC1 [Pictilisib] (partner 1 µM) | 0.491 | 0.448 | 0.553 | 0.52 | 0.861 | 1.01 | 1.06 | 0.969 | 0.37 | 0.375 | 0.338 | 0.359 | 0.733 | 0.923 | 0.931 | 0.963 | 0.245 | 0.27 | 0.287 | 0.267 | –
6 | Nc1cccc2c1CN(C1CCC(=O)NC1=O)C2=O (stereo not drawn) [Lenalidomide] + C[C@@H](Oc1cc(-c2cnn(C3CCNCC3)c2)cnc1N)c1c(Cl)ccc(F)c1Cl [Crizotinib] (partner 1 µM) | 0.777 | 0.835 | 0.745 | 0.902 | 0.808 | 0.825 | 1.06 | 1.01 | 0.833 | 0.753 | 0.759 | 0.756 | 0.978 | 1 | 1.01 | 0.977 | 0.467 | 0.707 | 0.671 | 0.89 | –
7 | Nc1cccc2c1CN(C1CCC(=O)NC1=O)C2=O (stereo not drawn) [Lenalidomide] + C[C@]1(O)C[C@@H](c2nc(-c3ccc4ccc(-c5ccccc5)nc4c3)c3c(N)nccn32)C1 [Linsitinib] (partner 1 µM) | 0.539 | 0.573 | 0.56 | 0.368 | 0.836 | 0.984 | 1.12 | 0.818 | 0.605 | 0.468 | 0.667 | 0.49 | 0.954 | 0.968 | 1.06 | 0.852 | 0.566 | 1.01 | 0.956 | 0.431 | –
8 | Nc1cccc2c1CN(C1CCC(=O)NC1=O)C2=O (stereo not drawn) [Lenalidomide] + Cc1cc(Nc2cc(N3CCN(C)CC3)nc(Sc3ccc(NC(=O)C4CC4)cc3)n2)n[nH]1 [Tozasertib] (partner 0.1 µM) | – | – | – | – | – | – | – | – | – | – | – | – | – | – | – | – | – | – | – | – | relative viability ([6]; first compound 0.253 µM): 0.427; relative viability ([6]; first compound 0.8 µM): 0.36; relative viability ([6]; first compound 2.53 µM): 0.43; relative viability ([6]; first compound 8 µM): 0.496
9 | Nc1cccc2c1CN(C1CCC(=O)NC1=O)C2=O (stereo not drawn) [Lenalidomide] + Cc1nc(Nc2ncc(C(=O)Nc3c(C)cccc3Cl)s2)cc(N2CCN(CCO)CC2)n1 [Dasatinib] (partner 0.075 µM) | – | – | – | – | – | – | – | – | – | – | – | – | – | – | – | – | – | – | – | – | relative viability ([6]; first compound 0.253 µM): 0.51; relative viability ([6]; first compound 0.8 µM): 0.466; relative viability ([6]; first compound 2.53 µM): 0.523; relative viability ([6]; first compound 8 µM): 0.497
10 | Nc1cccc2c1CN(C1CCC(=O)NC1=O)C2=O (stereo not drawn) [Lenalidomide] + N=C(N)NC(=N)NCCc1ccccc1 [Phenformin] (partner 250 µM) | 0.104 | 0.158 | 0.168 | 0.208 | – | – | – | – | – | – | – | – | – | – | – | – | – | – | – | – | relative viability ([6]; first compound 0.253 µM): 0.572; relative viability ([6]; first compound 0.8 µM): 0.576; relative viability ([6]; first compound 2.53 µM): 0.601; relative viability ([6]; first compound 8 µM): 0.544
11 | Nc1cccc2c1CN(C1CCC(=O)NC1=O)C2=O (stereo not drawn) [Lenalidomide] + NC(=O)Nc1cc(-c2cccc(F)c2)sc1C(=O)N[C@H]1CCCNC1 [AZD7762] (partner 0.2 µM) | – | – | – | – | – | – | – | – | – | – | – | – | – | – | – | – | 0.123 | 0.117 | 0.131 | 0.135 | –
12 | Nc1cccc2c1CN(C1CCC(=O)NC1=O)C2=O (stereo not drawn) [Lenalidomide] + Nc1ncn([C@H]2C[C@H](O)[C@@H](CO)O2)c(=O)n1 [Decitabine] (partner 2 µM) | 0.211 | 0.22 | 0.268 | 0.269 | – | – | – | – | – | – | – | – | – | – | – | – | – | – | – | – | –
13 | Nc1cccc2c1CN(C1CCC(=O)NC1=O)C2=O (stereo not drawn) [Lenalidomide] + O=C(CCCCCCC(=O)Nc1ccccc1)NO [Vorinostat] (partner 1 µM) | – | – | – | – | – | – | – | – | 0.852 | 0.969 | 1.22 | 0.814 | – | – | – | – | – | – | – | – | –
14 | Nc1cccc2c1CN(C1CCC(=O)NC1=O)C2=O (stereo not drawn) [Lenalidomide] + O=C(c1cc(Cc2n[nH]c(=O)c3ccccc23)ccc1F)N1CCN(C(=O)C2CC2)CC1 [Olaparib] (partner 8 µM) | 0.401 | 0.101 | 0.22 | 0.228 | 0.547 | 0.591 | 0.674 | 0.799 | 0.874 | 0.799 | 0.777 | 0.728 | 0.938 | 1.03 | 1 | 1.07 | 0.398 | 0.521 | 0.478 | 0.433 | –
15 | Cc1cn(-c2cc(NC(=O)c3ccc(C)c(Nc4nccc(-c5cccnc5)n4)c3)cc(C(F)(F)F)c2)cn1 [Nilotinib] + CS(=O)(=O)CCNCc1ccc(-c2ccc3ncnc(Nc4ccc(OCc5cccc(F)c5)c(Cl)c4)c3c2)o1 [Lapatinib] (partner 2 µM) | – | – | – | – | – | – | – | – | – | – | – | – | – | – | – | – | – | – | – | – | relative viability ([1]; first compound 0.001 µM): 1.01; relative viability ([1]; first compound 0.003162 µM): 1.07; relative viability ([1]; first compound 0.01 µM): 1.09; relative viability ([1]; first compound 0.03162 µM): 0.881; relative viability ([1]; first compound 0.1 µM): 0.672; relative viability ([3]; first compound 0.003162 µM): 0.936; relative viability ([3]; first compound 0.01 µM): 0.755; relative viability ([3]; first compound 0.03162 µM): 0.459; relative viability ([3]; first compound 0.1 µM): 0.794; relative viability ([4]; first compound 0.001 µM): 0.967; relative viability ([4]; first compound 0.003162 µM): 0.974; relative viability ([4]; first compound 0.01 µM): 0.992; relative viability ([4]; first compound 0.03162 µM): 1.05; relative viability ([4]; first compound 0.1 µM): 0.98; relative viability ([5]; first compound 0.003162 µM): 0.738; relative viability ([5]; first compound 0.01 µM): 0.567; relative viability ([5]; first compound 0.03162 µM): 0.208; relative viability ([5]; first compound 0.1 µM): 0.227

From the supplement of paper PMC10307832
